The source of these data is publication PMC11311998, “AR71, Histamine H3 Receptor Ligand—In Vitro and In Vivo Evaluation (Anti-Inflammatory Activity, Metabolic Stability, Toxicity, and Analgesic Action)” (International Journal of Molecular Sciences, 2024).

Like-named read-outs stand apart in the source and are kept apart here.

The test system of data set [1] is human peripheral blood mononuclear cells (PBMCs). The data set can be described thus: PBMC viability (resazurin reduction assay). It counts as cell-based. Conditions: for IC50: Homo sapiens, PBMC, read-out: IC50 PBM Cells. How it is done:
PBMCs were isolated from a leucocyte-buffy coat collected from the blood of healthy non-smoking donors from the Blood Bank in Lodz, Poland. They included lymphocytes, monocytes, and other white blood cells with a round nucleus. A portion of the leucocyte-buffy coat was diluted in 1% phosphate buffer saline (PBS). Then, it was centrifuged in a density gradient of Lymphosep (Cytogen, Zgierz, Poland) at 200× g for 20 min at room temperature. Next, the cells were collected and washed thrice in 1% PBS. The supernatant was poured off, and the pellet of the cells was resuspended in RPMI 1640 medium (Lonza, Basel, Switzerland). The study protocol was approved by the Committee for Research on Human Subjects of the University of Lodz, Poland (17/KBBN-UŁ/III/2019).
The resazurin reduction assay was performed similarly to that previously described by O’Brien et al.. Resazurin salt powder was dissolved in sterile PBS. The cells were seeded on 96-well plates in 5 × 10^4 for PBMCs per well. AR71 was added to the wells to achieve final concentrations of 0.78, 1.56, 3.125, 6.25, 12.5, 25, 50, and 100 µM. In the next step, the plates were incubated at 37 °C in 5% CO2 for 2 h, 24 h, 48 h, and 72 h. Then, 10 µL of resazurin salt was added to each well, and the plates were incubated again at 37 °C in 5% CO2 for 2 h. Next, fluorescence was measured with microplate reader BioTek Synergy HT (Agilent Technologies, Inc., Santa Clara, CA, USA) using an excitation wavelength of 530/25 nm and an emission wavelength of 590/35 nm.
The viability of PBMCs was estimated after 2, 24, 48, and 72 h of incubation with AR71. The viability of individual samples was calculated relative to the negative control (NC, untreated cells), which was taken as 100%. The positive control was PBMCs incubated with 0.1% DMSO (vehicle, Veh). The results represented the means with SEMs of six independent experiments and were expressed as a percentage of untreated control cells. The values were plotted against all used concentrations of AR71 to calculate the viability inhibition concentration at 50% (IC50) using GraphPad Prism 6.07 (GraphPad Software, Inc., San Diego, CA, USA).
In general terms: The colour change of resazurin is a common sign of viable cells or microbes.

A further data set has as its system SH-SY5Y cells. It counts as cell-based, human. To be noted: without rotenone. As to the method: To test neuroprotective activity, SH-SY5Y cells were pre-treated for 1 h with various concentrations of AR71, after which rotenone (6.25 μM) was added and the cells were cultured for another 24 h. […] Co-treatment with AR71 protected cells from the toxic effect of rotenone, resulting in LDH leakage ranging from 10 to 22% only.
The protective effect of AR71 against rotenone-induced toxicity in SH-SY5Y cells was assessed by measuring LDH release. SH-SY5Y cells (6 × 10^3 cells/100 μL/well) were seeded in black 96-well plates Nunclon^TM Delta Surface no. 137101 (ThermoFischer Scientific, Waltham, MA, USA) and cultured overnight. The next day, the medium was removed and replaced with a fresh one with an increasing concentration of AR71 (0.0975–50 μM). After 1 h of compound pre-treatment, the neurotoxin rotenone (6.25 μM) was added, and the cells were cultured for another 24 h. For the negative and positive controls, cells were treated with 0.1% DMSO and 6.25 μM of rotenone alone, respectively. The cells treated with the compound alone were used to compare the effect with those co-treated with rotenone. After 24 h, the level of LDH leakage was measured by the CytoTox-ONE™ Homogeneous Membrane Integrity Assay (Promega, Madison, WI, USA) following the manufacturer’s protocol. Briefly, 100 μL of CytoTox-ONE™ reagent (Promega, Madison, WI, USA) was added to each well, and the cells were incubated for 10 min at room temperature protected from light. The fluorescence was measured using the multimode plate reader Tecan Spark (Tecan, Männedorf, Switzerland) with an excitation wavelength of 560 nm and an emission wavelength of 590 nm.

The subject of another data set is CCI-exposed mice. The data set can be described thus: tail flick test in CCI neuropathic pain model. Conditions: 20 mg/kg i.p. It counts as in vivo, mouse. As to the method: The effects of a single intraperitoneal (i.p.) injection of AR71 at doses of 5, 10, and 20 mg/kg on mechanical (von Frey test) and thermal (cold plate and tail flick tests) stimulus were evaluated on day 14 following sciatic nerve injury (Figure 15). There were seven to eight animals per group. All these tests were performed in three time series after the administration of the compound. In the case of the von Frey test—after 30, 90, and 180 min; the cold plate test—after 35, 95, and 185 min; and the tail flick test—after 40, 100, and 190 min.
The mice were randomly divided into four experimental groups. One group received a vehicle treatment (10% DMSO/10%(2-Hydroxypropyl)-β-cyclodextrin/water for injection, i.p.), while the other three groups were administered with AR71 at doses of 5, 10, or 20 mg/kg of body weight (b.w.), i.p. Baseline measurements for all tests were conducted before the compounds were injected, and the results are presented as percentages of the maximal possible effect (% MPE). […] All data from behavioural tests were analysed using a one-way ANOVA with Bonferroni’s multiple comparison post hoc test. […]
Tail flick latency was measured on the dorsal part of the tail at two-thirds of its length by applying a focused beam of light (thermal stimulus). The time interval between the thermal stimulus’s onset and the tail’s withdrawal from the beam was recorded. […]

In the case of `COc1cc(/C=C/C(=O)c2ccc(OCCCN3CCCCC3)cc2)cc(OC)c1OC` [AR71, (E)-3-(3,4,5-trimethoxyphenyl)-1-(4-(3-(piperidin-1-yl)propoxy)phenyl)prop-2-en-1-one], the “decrease in the number of PBMCs” value was 80–98% in data set [1] (100 µM, regardless of incubation time (2-72 h)) and at most 20% in data set [1] (6.25–50 µM, 2 h). Besides, the “cytotoxic effect on PBMCs” value in data set [1] (0.78, 1.56 and 3.125 µM, 2 h) is “did not cause a cytotoxic effect”. The IC50 in data set [1] (2 h incubation) is 71 µM; in data set [1] (24 h incubation), 21 µM; in data set [1] (48 h incubation), 7.48 µM; in data set [1] (72 h incubation), 4.53 µM. For the same compound, the “LDH leakage compared with control cells” value with SH-SY5Y cells (50 μM) was about 60%. In addition, the “effect on cell membrane integrity (LDH)” value in the data set on SH-SY5Y cells (0.0975–25 μM) is “did not disturb the cell membrane”. The “effect in tail flick test vs vehicle” value in the data set with CCI-exposed mice (100 and 190 min (p < 0.001 and p < 0.01)) is listed as “significant pain-relieving effects”; in the data set with CCI-exposed mice (40 min post-injection, p < 0.05), “significant analgesic effect”.

The term IC50 denotes the midpoint of a concentration-inhibition curve.
